Test results reported in PubChem BioAssay AID1963828 (Molecular Pharmacology Branch, DTP, NCI, 2024).

Test system: 991263-137-R1-J2-PDC complex spheroid viability
Assay: Anticancer human tumor 991263-137-R1-J2-PDC patient-derived colon adenocarcinoma cell line growth inhibition [POLQ]
Details: for IC50: curve of first compound; for viability, T/C: stronger effect = lower value
Experimental: Multicellular complex tumor spheroid response to Polymerase (POL) inhibitors (novobiocin, ART-558, RP6685) in combination with a variety of drugs and investigational agents in selected tumor cell lines
The POL inhibitors (novobiocin, ART-558, and RP6685) were evaluated both individually and in combination with standard of care and investigational anticancer small molecules within a complex spheroid model of solid tumors. . Complex spheroids include a stromal component modeled by human endothelial cells (HUVEC) and fibroblasts modeled by human mesenchymal stem cells (MSCs). The concentration ranges selected for each drug and investigational agent were based upon clinically achievable concentrations if the clinical Cmax of the agent was known.
Compounds. The drugs and investigational agents: novobiocin (NSC847541), ART-558 (NSC835418), RP-6685 (NSC848927), peposertib (NSC802822), ceralasertib (NSC780249), elimusertib (NSC800525), camonsertib (NSC841442), AZD-1390 (NSC803789), olaparib (NSC753686), talazoparib (NSC767125), rucaparib (NSC756644), sotorasib (NSC818433), MRTX-1133 (NSC836407), SN-38 (NSC673596), topotecan (NSC609699), epotoside (NSC141540), doxorubicin (NSC123127), gemcitabine (NSC613327), 5-fluorouracil (NSC19893), paclitaxel (NSC125973), vemurafenib (NSC761431), MSA-2 (NSC828583), SN-011 (NSC837082), adavosertib (NSC754352), prexasertib (NSC758257), carboplatin (NSC241240) and oxaliplatin (NSC266046), were obtained from the National Cancer Institute (NCI) Developmental Therapeutics Program Chemical Repository (21). The FDA-approved anticancer drug set is available from the Developmental Therapeutics Program at https://dtp.cancer.gov/organization/dscb/obtaining/. […] The stock solutions were prepared in dimethyl sulfoxide (DMSO, Sigma-Aldrich, St. Louis, MO, cat. D2650), except for the platinum compounds which were prepared in saline (Quality Biological, Gaithersburg, MD, cat. 114-055-101), at 800-fold the tested concentration and stored at -70 degrees C prior to their use. All drugs and investigational agents were tested over a range starting from a high concentration at or near the clinical Cmax and decreasing in half-log increments. If the clinical Cmax for an agent had not been determined, the highest concentration tested was 10 microM, except for SN-38, which was tested at a high concentration of 1 microM.
Cell Culture. All cells were maintained in an incubator at 37 degrees C and 5% CO2 with 95% humidity. The PDC lines were cultured according to standard operating procedures established by the NCI PDMR (https://pdmr.cancer.gov). Table 3 of the manuscript, lists the cell lines along with the number of the three cell types plated to form the mct-spheroids and media for tumor cell growth. After thawing, all PDC lines, except 997537-175-T-J1-PDC and 415267-285-R-J2-PDC, were cultured in Matrigel-coated flasks prepared with a working solution of 1X Ham's F-12 nutrient mix, without supplementation (Thermo Fisher Scientific, cat. 11765054), 100 U/mL penicillin-streptomycin (Thermo Fisher Scientific, cat. 15140122), and 2.5% Matrigel (Corning Inc., Corning, NY, cat. 354248) for the first three passages. The two PDC lines 997537-175-T-J1-PDC and 415267-285-R-J2-PDC were cultured on uncoated flasks. The 857933-349-R-J2-PDC line was cultured in 6C/Colon 1B media containing advanced DMEM/F-12 (Thermo Fisher Scientific, cat. 12634028), 10 mM HEPES (Thermo Fisher Scientific, cat. 15630080), 1X GlutaMAX supplement (Thermo Fisher Scientific, cat. 35050061), 0.1 mg/mL primocin (InvivoGen, San Diego, CA, cat. ant-pm-2), 10% defined fetal bovine serum, heat inactivated (HyClone Laboratories Inc., Logan, UT, cat. SH30070.03HI), 50% L-WRN conditioned media (ATCC, cat. CRL-3276), 1.25 mM N-Acetyl-L-cysteine (Sigma-Aldrich, cat. A9165), 10 mM nicotinamide (Sigma-Aldrich, cat. N0636), 1X B-27 supplement (Thermo Fisher Scientific, cat. 17504044), 1X N-2 supplement (Thermo Fisher Scientific, cat. […]

[1] = second compound 0.0316 µM, first compound 0.00316 µM
[2] = second compound 0.0316 µM, first compound 0.01 µM
[3] = second compound 0.0316 µM, first compound 0.0316 µM
[4] = second compound 0.0316 µM, first compound 0.1 µM
[5] = second compound 0.1 µM, first compound 0.00316 µM
[6] = second compound 0.1 µM, first compound 0.01 µM
[7] = second compound 0.1 µM, first compound 0.0316 µM
[8] = second compound 0.1 µM, first compound 0.1 µM
[9] = second compound 0.316 µM, first compound 0.00316 µM
[10] = second compound 0.316 µM, first compound 0.01 µM
[11] = second compound 0.316 µM, first compound 0.0316 µM
[12] = second compound 0.316 µM, first compound 0.1 µM
[13] = second compound 1 µM, first compound 0.00316 µM
[14] = second compound 1 µM, first compound 0.01 µM
[15] = second compound 1 µM, first compound 0.0316 µM
[16] = second compound 1 µM, first compound 0.1 µM
[17] = second compound 3.16 µM, first compound 0.00316 µM
[18] = second compound 3.16 µM, first compound 0.01 µM
[19] = second compound 3.16 µM, first compound 0.0316 µM
[20] = second compound 3.16 µM, first compound 0.1 µM
[21] = second compound 10 µM, first compound 0.00316 µM
[22] = second compound 10 µM, first compound 0.01 µM
[23] = second compound 10 µM, first compound 0.0316 µM
[24] = second compound 10 µM, first compound 0.1 µM
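Further: spheroids exposed to compounds for 7 days before readout.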
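Wherever viability, T/C is given: 100% = DMSO vehicle control viability.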

CC[C@@]1(O)C(=O)OCc2c1cc1n(c2=O)Cc2cc3c(CN(C)C)c(O)ccc3nc2-1 + COC1C(OC(N)=O)C(O)C(Oc2ccc3c(O)c(NC(=O)c4ccc(O)c(CC=C(C)C)c4)c(=O)oc3c2C)OC1(C)C
IC50 (second compound 0.0316 µM): > 100 nM | IC50 (second compound 0.1 µM): > 100 nM | IC50 (second compound 0.316 µM): > 100 nM | IC50 (second compound 1 µM): > 100 nM | IC50 (second compound 3.16 µM): > 100 nM | IC50 (second compound 10 µM): > 100 nM | viability, T/C (second compound 0.0316 µM, first compound 0.000316 µM): 103% | viability, T/C (second compound 0.0316 µM, first compound 0.001 µM): 103% | viability, T/C [1]: 106% | viability, T/C [2]: 103% | viability, T/C [3]: 100% | viability, T/C [4]: 87.3% | viability, T/C (second compound 0.1 µM, first compound 0.000316 µM): 105% | viability, T/C (second compound 0.1 µM, first compound 0.001 µM): 125% | viability, T/C [5]: 98.3% | viability, T/C [6]: 79.6% | viability, T/C [7]: 86.4% | viability, T/C [8]: 71.4% | viability, T/C (second compound 0.316 µM, first compound 0.000316 µM): 110% | viability, T/C (second compound 0.316 µM, first compound 0.001 µM): 110% | viability, T/C [9]: 107% | viability, T/C [10]: 100% | viability, T/C [11]: 102% | viability, T/C [12]: 84.5% | viability, T/C (second compound 1 µM, first compound 0.000316 µM): 82.4% | viability, T/C (second compound 1 µM, first compound 0.001 µM): 106% | viability, T/C [13]: 97.7% | viability, T/C [14]: 93.2% | viability, T/C [15]: 75.7% | viability, T/C [16]: 86.4% | viability, T/C (second compound 3.16 µM, first compound 0.000316 µM): 93.9% | viability, T/C (second compound 3.16 µM, first compound 0.001 µM): 107% | viability, T/C [17]: 104% | viability, T/C [18]: 112% | viability, T/C [19]: 98.6% | viability, T/C [20]: 87.7% | viability, T/C (second compound 10 µM, first compound 0.000316 µM): 92.8% | viability, T/C (second compound 10 µM, first compound 0.001 µM): 114% | viability, T/C [21]: 99.1% | viability, T/C [22]: 95.3% | viability, T/C [23]: 110% | viability, T/C [24]: 88.5%

CCc1c2c(nc3ccc(O)cc13)-c1cc3c(c(=O)n1C2)COC(=O)[C@]3(O)CC + COC1C(OC(N)=O)C(O)C(Oc2ccc3c(O)c(NC(=O)c4ccc(O)c(CC=C(C)C)c4)c(=O)oc3c2C)OC1(C)C
IC50 (second compound 0.0316 µM): 69.1 nM | IC50 (second compound 0.1 µM): 55.1 nM | IC50 (second compound 0.316 µM): 59.2 nM | IC50 (second compound 1 µM): 67.5 nM | IC50 (second compound 3.16 µM): 99.9 nM | IC50 (second compound 10 µM): 59.2 nM | viability, T/C [1]: 102% | viability, T/C [2]: 81% | viability, T/C [3]: 54.5% | viability, T/C [4]: 45.3% | viability, T/C (second compound 0.0316 µM, first compound 0.316 µM): 41.4% | viability, T/C (second compound 0.0316 µM, first compound 1 µM): 25.9% | viability, T/C [5]: 106% | viability, T/C [6]: 88.4% | viability, T/C [7]: 52.9% | viability, T/C [8]: 44% | viability, T/C (second compound 0.1 µM, first compound 0.316 µM): 29.1% | viability, T/C (second compound 0.1 µM, first compound 1 µM): 20.2% | viability, T/C [9]: 83.3% | viability, T/C [10]: 74.9% | viability, T/C [11]: 47.8% | viability, T/C [12]: 48.9% | viability, T/C (second compound 0.316 µM, first compound 0.316 µM): 34.9% | viability, T/C (second compound 0.316 µM, first compound 1 µM): 20.9% | viability, T/C [13]: 92.2% | viability, T/C [14]: 81% | viability, T/C [15]: 62.2% | viability, T/C [16]: 41.9% | viability, T/C (second compound 1 µM, first compound 0.316 µM): 33.6% | viability, T/C (second compound 1 µM, first compound 1 µM): 22.6% | viability, T/C [17]: 84.1% | viability, T/C [18]: 66.6% | viability, T/C [19]: 61.1% | viability, T/C [20]: 54.3% | viability, T/C (second compound 3.16 µM, first compound 0.316 µM): 37.1% | viability, T/C (second compound 3.16 µM, first compound 1 µM): 19.2% | viability, T/C [21]: 104% | viability, T/C [22]: 82.3% | viability, T/C [23]: 53.3% | viability, T/C [24]: 46.1% | viability, T/C (second compound 10 µM, first compound 0.316 µM): 30.6% | viability, T/C (second compound 10 µM, first compound 1 µM): 19.9%
